System: Lovo tumor xenografts
Assay: Colorectal cancer xenograft model, 5-FU treatment
Assay type: in vivo, nude mice
Conditions: 5-FU 50 mg/kg/day i.p., 5 days per week for 2 weeks; Lovo(MSH2+) vs Lovo(MSH2−)
From the text: Lovo-MSH2 positive and Lovo-MSH2 negative cells were stably infected with the pCDH-CMV-MCS-EF1-miRNA expression plasmid containing the full-length miR-21 and the GFP gene under the control of two different promoters (System Biosciences, Mountain View, Calif.). An empty vector was used as control. Pre-miR-21 expression and control constructs were packaged with pPACKH1 Lentivector Packaging Plasmid mix (System Biosciences) in 293-TN packaging cell line. Viruses were concentrated using PEG-It™ Virus Precipitation Solution and titers analyzed using UltraRapid Lentiviral Titer Kit (System Biosciences). Infected cells were selected by FACS analysis (FACS Calibur, Becton Dickinson Immunocytometry Systems). Infection efficiency >90% was verified by fluorescent microscopy and further confirmed by real time PCR for miR-21 expression.
Animal studies were performed according to institutional guidelines. […] Tumor volume was measured at the beginning of treatment and then once a week. The estimated tumor volume (V) was calculated by the following formula: V=W2×L×0.5, where W represents the […] tumor diameter. The individual relative tumor volume (RTV) was calculated as follows RTV=Vx/V1 where Vx is the volume in cubic millimeters at a given time and V1 is the volume at the start of treatment. […]

## O=c1[nH]cc(F)c(=O)[nH]1 [5-FU, 5-fluorouracil]
  efficacy of 5-FU treatment on tumor xenografts: more efficacious with Lovo(MSH2+) tumor xenografts compared to Lovo(MSH2−) tumor xenografts
